Here are results for 26 compounds from US10407422B2, “Triazolopyridine inhibitors of myeloperoxidase” (priority 2015, dated 2019).

Assay [1] deals with T1, myeloperoxidase (MPO) (Homo sapiens (Human), UniProt P05164). Briefly: MPO peroxidation assay (Amplex Red assay). The assay is classed as biochemical. The note with it: potency range class. The essentials: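 IC50 values come from a four-parameter fit of rates taken from the linear 180-540 s portion of a 15 min kinetic read of resorufin (Ex 535/Em 590 nm). Amplex Red (200 μM) plus 10 mM H2O2 was added after a 10 min room-temperature preincubation of inhibitor with 200 pM MPO and 40 nM H2O2 in 100 mM KPi, pH 7.4.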

Assay [2] addresses T1, myeloperoxidase (MPO). Briefly: MPO chlorination assay (APF assay). It is filed as biochemical. The settings on record: potency range class. An outline of the steps:
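Chlorinating activity followed by APF cleavage to fluorescein (485/535 nm, 3 min kinetic read) after adding APF and 10 μM H2O2. Beforehand, 200 pM enzyme, compound and 120 mM NaCl sat 10 min at room temperature in 100 mM KPi, pH 7.4. Initial-rate slopes gave % inhibition; IC50 by Hill-slope fit.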

Molecules are shown by their SMILES.

T1 sequence (P05164 49-745): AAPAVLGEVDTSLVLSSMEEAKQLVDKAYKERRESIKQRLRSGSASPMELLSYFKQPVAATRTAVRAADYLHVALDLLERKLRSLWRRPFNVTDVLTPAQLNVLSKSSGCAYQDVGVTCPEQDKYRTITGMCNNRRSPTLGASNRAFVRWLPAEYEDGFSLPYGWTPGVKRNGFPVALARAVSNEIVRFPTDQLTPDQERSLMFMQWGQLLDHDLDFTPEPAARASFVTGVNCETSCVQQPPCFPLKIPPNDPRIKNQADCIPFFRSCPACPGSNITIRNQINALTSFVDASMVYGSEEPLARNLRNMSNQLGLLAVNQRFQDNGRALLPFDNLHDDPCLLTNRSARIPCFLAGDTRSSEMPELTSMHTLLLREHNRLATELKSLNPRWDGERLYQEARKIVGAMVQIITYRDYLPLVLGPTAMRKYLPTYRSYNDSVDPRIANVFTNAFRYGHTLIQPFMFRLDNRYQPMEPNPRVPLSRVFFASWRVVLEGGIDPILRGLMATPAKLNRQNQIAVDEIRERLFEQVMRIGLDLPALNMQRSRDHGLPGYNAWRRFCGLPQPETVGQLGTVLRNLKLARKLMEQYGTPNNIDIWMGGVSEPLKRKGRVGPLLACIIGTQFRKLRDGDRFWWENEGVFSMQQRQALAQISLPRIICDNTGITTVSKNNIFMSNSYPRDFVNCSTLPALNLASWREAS

Broadly, the IC50 is the concentration needed to halve the response being measured. Regarding `Nc1cc(Cc2cnn(Cc3cccc(C4CNC4)c3)c2)c2nn[nH]c2n1` [Example 210, 7-[(1-{[3-(Azetidin-3-yl)phenyl]methyl}-1H-pyrazol-4-yl)methyl]-3H-[1,2,3]triazolo[4,5-b]pyridin-5-amine], the IC50 in assay [1] and in assay [2] was 1 to 100 nM in each case.

As for `CC1CC(c2cccc(Cn3cc(Cc4cc(N)nc5[nH]nnc45)cn3)c2)CCN1` (stereo not shown) [Example 211, 7-[(1-{[3-(2-Methylpiperidin-4-yl)phenyl]methyl}-1H-pyrazol-4-yl)methyl]-3H-[1,2,3]triazolo[4,5-b]pyridin-5-amine], the IC50 in assay [1] and in assay [2] was 1 to 100 nM throughout.

For `CC1CNCCC1c1cccc(Cn2cc(Cc3cc(N)nc4[nH]nnc34)cn2)c1` (stereo not shown) [Example 212, 7-[(1-{[3-(3-Methylpiperidin-4-yl)phenyl]methyl}-1H-pyrazol-4-yl)methyl]-3H-[1,2,3]triazolo[4,5-b]pyridin-5-amine], the 50% inhibitory concentration (IC50) in assay [1] and in assay [2] was 1 to 100 nM in each case.

`Nc1cc(Cc2cnn(Cc3cccc(C4(O)CCNCC4F)c3)c2)c2nn[nH]c2n1` (stereo not shown) [Example 213, 4-(3-{[4-({5-Amino-3H-[1,2,3]triazolo[4,5-b]pyridin-7-yl}methyl)-1H-pyrazol-1-yl]methyl}phenyl)-3-fluoropiperidin-4-ol]: the IC50 in assay [1] lay in the range of 1 to 100 nM; in assay [2], 101 to 999 nM.

Turning to `Nc1cc(Cc2cnn(Cc3cccc(C4CCNCC4(F)F)c3)c2)c2nn[nH]c2n1` (stereo not shown) [Example 214, 7-[(1-{[3-(3,3-Difluoropiperidin-4-yl)phenyl]methyl}-1H-pyrazol-4-yl)methyl]-3H-[1,2,3]triazolo[4,5-b]pyridin-5-amine], the IC50 in assay [1] was 1 to 100 nM; in assay [2] it was 101 to 999 nM.

With `Nc1cc(Cc2cnn(Cc3ccccc3C3CCNCC3)c2)c2nn[nH]c2n1` [Example 215, 7-[(1-{[2-(Piperidin-4-yl)phenyl]methyl}-1H-pyrazol-4-yl)methyl]-3H-[1,2,3]triazolo[4,5-b]pyridin-5-amine], the IC50 in assay [1] lay within 1 to 100 nM; in assay [2], 101 to 999 nM.

As for `Nc1cc(Cc2cnn(Cc3cccc(C4CCNCC4F)c3)c2)c2nn[nH]c2n1` (stereo not shown) [Example 216, 7-[(1-{[3-(3-Fluoropiperidin-4-yl)phenyl]methyl}-1H-pyrazol-4-yl)methyl]-3H-[1,2,3]triazolo[4,5-b]pyridin-5-amine], the IC50 in assay [1] and in assay [2] was 1 to 100 nM each time.

Take `Nc1cc(Cc2cnn(Cc3cccc(N4CCNCC4)c3)c2)c2nn[nH]c2n1` [Example 217, 7-[(1-{[3-(Piperazin-1-yl)phenyl]methyl}-1H-pyrazol-4-yl)methyl]-3H-[1,2,3]triazolo[4,5-b]pyridin-5-amine]: the figures for the IC50 in assay [1] and in assay [2] were 1 to 100 nM and 101 to 999 nM, respectively.

On to `Nc1cc(Cc2cnn(Cc3cccc(N4CCNC(c5cccc(Cl)c5)C4)c3)c2)c2nn[nH]c2n1` (stereo not shown) [Example 218, 7-{[1-({3-[3-(3-Chlorophenyl)piperazin-1-yl]phenyl}methyl)-1H-pyrazol-4-yl]methyl}-3H-[1,2,3]triazolo[4,5-b]pyridin-5-amine], for which the IC50 in assay [1] fell in the range of 101 to 999 nM; in assay [2], 1 to 100 nM.

As to `Nc1cc(Cc2cnn(Cc3cccc(N4CCNC(c5ccccc5)C4)c3)c2)c2nn[nH]c2n1` (stereo not shown) [Example 219, 7-[(1-{[3-(3-Phenylpiperazin-1-yl)phenyl]methyl}-1H-pyrazol-4-yl)methyl]-3H-[1,2,3]triazolo[4,5-b]pyridin-5-amine], the half-inhibitory concentration (IC50) was in the range of 101 to 999 nM in assay [1] and 1 to 100 nM in assay [2].

Turning to `Nc1cc(Cc2cnn(Cc3cccc(N4CCN[C@@H](COCc5ccccc5)C4)c3)c2)c2nn[nH]c2n1` [Example 220, 7-{[1-({3-[(3R)-3-[(Benzyloxy)methyl]piperazin-1-yl]phenyl}methyl)-1H-pyrazol-4-yl]methyl}-3H-[1,2,3]triazolo[4,5-b]pyridin-5-amine], the values for the 50% inhibitory concentration (IC50) in assay [1] and in assay [2] were 101 to 999 nM and 1 to 100 nM, respectively.

For the compound `C[C@@H]1CN(c2cccc(Cn3cc(Cc4cc(N)nc5[nH]nnc45)cn3)c2)C[C@H](C)N1` [Example 221, 7-{[1-({3-[cis-3,5-Dimethylpiperazin-1-yl]phenyl}methyl)-1H-pyrazol-4-yl]methyl}-3H-[1,2,3]triazolo[4,5-b]pyridin-5-amine], the concentration for half-maximal inhibition (IC50) in assay [1] and in assay [2] was 1 to 100 nM throughout.

Regarding `Nc1cc(Cc2cnn(Cc3cccc(N4CCNC(C(F)(F)F)C4)c3)c2)c2nn[nH]c2n1` (stereo not shown) [Example 222, 7-{[1-({3-[3-(Trifluoromethyl)piperazin-1-yl]phenyl}methyl)-1H-pyrazol-4-yl]methyl}-3H-[1,2,3]triazolo[4,5-b]pyridin-5-amine], the IC50 in assay [1] and in assay [2] was 101 to 999 nM in each case.

For the compound `Nc1cc(Cc2cnn(Cc3cccc(N4CCNC5(CCCCC5)C4)c3)c2)c2nn[nH]c2n1` [Example 223, 7-({1-[(3-{1,4-Diazaspiro[5.5]undecan-4-yl}phenyl)methyl]-1H-pyrazol-4-yl}methyl)-3H-[1,2,3]triazolo[4,5-b]pyridin-5-amine], the IC50 is 101 to 999 nM in assay [1] and 1 to 100 nM in assay [2].

Take `Nc1cc(Cc2cnn(Cc3cccc(N4C[C@@H]5C[C@H]4CN5)c3)c2)c2nn[nH]c2n1` [Example 224, 7-{[1-({3-[(1S,4S)-2,5-Diazabicyclo[2.2.1]heptan-2-yl]phenyl}methyl)-1H-pyrazol-4-yl]methyl}-3H-[1,2,3]triazolo[4,5-b]pyridin-5-amine]: the figures for the IC50 in assay [1] and in assay [2] were 101 to 999 nM and 1 to 100 nM, respectively.

For `Nc1cc(Cc2cnn(Cc3cccc(N4CCNC5(CCC5)C4)c3)c2)c2nn[nH]c2n1` [Example 225, 7-({1-[(3-{5,8-Diazaspiro[3.5]nonan-8-yl}phenyl)methyl]-1H-pyrazol-4-yl}methyl)-3H-[1,2,3]triazolo[4,5-b]pyridin-5-amine], the IC50 in assay [1] is 101 to 999 nM; in assay [2] it was 1 to 100 nM.

For the compound `C[C@@H]1CN(c2cc(Cn3cc(Cc4cc(N)nc5[nH]nnc45)cn3)ccc2F)C[C@H](C)N1` [Example 226, 7-{[1-({3-[cis-3,5-Dimethylpiperazin-1-yl]-4-fluorophenyl}methyl)-1H-pyrazol-4-yl]methyl}-3H-[1,2,3]triazolo[4,5-b]pyridin-5-amine], the IC50 in assay [1] lay in the range of 1 to 100 nM; in assay [2] it was 101 to 999 nM.

On to `Nc1cc(Cc2cnn(Cc3cccc(N4CCNCC4Cc4ccccc4)c3)c2)c2nn[nH]c2n1` (stereo not shown) [Example 227, 7-[(1-{[3-(2-Benzylpiperazin-1-yl)phenyl]methyl}-1H-pyrazol-4-yl)methyl]-3H-[1,2,3]triazolo[4,5-b]pyridin-5-amine], for which the IC50 in assay [1] and in assay [2] was 101 to 999 nM in each case.

For the compound `C[C@@H]1CN(c2cccc(Cn3cc(Cc4cc(N)nc5[nH]nnc45)cn3)c2)C[C@H](C)O1` [Example 228, 7-{[1-({3-[cis-2,6-Dimethylmorpholin-4-yl]phenyl}methyl)-1H-pyrazol-4-yl]methyl}-3H-[1,2,3]triazolo[4,5-b]pyridin-5-amine], the half-maximal inhibitory concentration (IC50) in assay [1] and in assay [2] was 101 to 999 nM in each case.

Regarding `Nc1cc(Cc2cnn(Cc3cccc(N4CC5C(N)C5C4)c3)c2)c2nn[nH]c2n1` [Example 229, (1R,5S,6S)-3-(3-{[4-({5-Amino-3H-[1,2,3]triazolo[4,5-b]pyridin-7-yl}methyl)-1H-pyrazol-1-yl]methyl}phenyl)-3-azabicyclo[3.1.0]hexan-6-amine], the IC50 fell in the range of 101 to 999 nM in assay [1] and 1 to 100 nM in assay [2].

Consider `Nc1cc(Cc2cnn(Cc3cccc(Oc4cccc5c4CNC5)c3)c2)c2nn[nH]c2n1` [Example 231, 7-[(1-{[3-(2,3-Dihydro-1H-isoindol-4-yloxy)phenyl]methyl}-1H-pyrazol-4-yl)methyl]-3H-[1,2,3]triazolo[4,5-b]pyridin-5-amine], for which the IC50 in assay [1] and in assay [2] was 1 to 100 nM in each case.

For `COC(=O)CNCc1cccc(Oc2cccc(Cn3cc(Cc4cc(N)nc5[nH]nnc45)cn3)c2)c1` [Example 232, Methyl 2-({[3-(3-{[4-({5-amino-3H-[1,2,3]triazolo[4,5-b]pyridin-7-yl}methyl)-1H-pyrazol-1-yl]methyl}phenoxy)phenyl]methyl}amino)acetate], the half-maximal inhibitory concentration (IC50) in assay [1] was in the range of 1 to 100 nM; in assay [2], 101 to 999 nM.

Regarding `Nc1cc(Cc2cnn(Cc3cccc(OCCC4CCc5ccccc54)c3)c2)c2nn[nH]c2n1` (stereo not shown) [Example 233, 7-{[1-({3-[2-(2,3-Dihydro-1H-inden-1-yl)ethoxy]phenyl}methyl)-1H-pyrazol-4-yl]methyl}-3H-[1,2,3]triazolo[4,5-b]pyridin-5-amine], the IC50 in assay [1] and in assay [2] was 101 to 999 nM each time.

For `Nc1cc(Cc2cnn(Cc3cccc(OC4CCCNC4)c3)c2)c2nn[nH]c2n1` (stereo not shown) [Example 234, 7-[(1-{[3-(Piperidin-3-yloxy)phenyl]methyl}-1H-pyrazol-4-yl)methyl]-3H-[1,2,3]triazolo[4,5-b]pyridin-5-amine], the half-inhibitory concentration (IC50) in assay [1] and in assay [2] was 1 to 100 nM throughout.

`Nc1cc(Cc2cnn(Cc3cccc(OCC4CCc5ccccc54)c3)c2)c2nn[nH]c2n1` (stereo not shown) [Example 235, 7-[(1-{[3-(2,3-Dihydro-1H-inden-1-ylmethoxy)phenyl]methyl}-1H-pyrazol-4-yl)methyl]-3H-[1,2,3]triazolo[4,5-b]pyridin-5-amine]: the IC50 in assay [1] and in assay [2] was 101 to 999 nM each time.

Turning to `Nc1cc(Cc2cnn(Cc3cccc(Oc4cccc(C5CCNCC5)c4)c3)c2)c2nn[nH]c2n1` [Example 236, 7-{[1-({3-[3-(Piperidin-4-yl)phenoxy]phenyl}methyl)-1H-pyrazol-4-yl]methyl}-3H-[1,2,3]triazolo[4,5-b]pyridin-5-amine], the IC50 in assay [1] and in assay [2] was 1 to 100 nM each time.
